≈ marks a conversion by molar mass, not a printed value.
Tests used:
50S ribosome = experiment: SPR interaction and affinity analysis; format: binding, S. aureus ATCC 43300; conditions: 4 °C
How it was run: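 50S subunit purified from S. aureus ATCC 43300 by sucrose cushion/gradient; compounds (100 μM in DMSO) photo-cross-linked on sensor chip. Ribosome flowed at 200–3200 nM in PBST pH 7.4, 4 °C, 600 s association, 360 s dissociation. KD = Kd/Ka from 1:1 Langmuir fit with mass transfer.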

CYP3A4 = CYP3A4 (Homo sapiens, UniProt P08684); experiment: Human liver microsomal CYP3A4 enzyme inhibition; format: in vitro ADME; design: from tissue; host or cells: human liver microsomes; conditions: human liver microsomes, testosterone substrate
Experimental: The inhibitory effect of compound 9 on CYP3A4 was evaluated according to previous work. The experiments were performed in 96-well plates with a final incubation volume of 100 µL per well. A total of 20 µL of compound 9 was added to 96-well plates, with final concentrations of 0.25, 0.5, 1, 5, 10, and 50 µM. Then, 40 µL of human liver microsomes (final concentration of human liver microsomes was 0.2 mg/mL) and 20 µL of probe substrates (final concentration of testosterone was 20 μmol/L) in 0.1 M Tris (pH = 7.4) were added. After preincubation at 37 °C for 5 min, the reaction started with the addition of 20 µL of NADPH (final concentration is 1 mmol/L). Then, the plate was incubated at 37 °C for 5 min, and then 100 μL acetonitrile (with loratadine used as an internal standard) was added to terminate the reaction. After the reactions were completed, the plates were centrifuged and the supernatants were analyzed for the loratadine and probe substrates testosterone by LC-MS/MS.

S. aureus (AD3) = experiment: MIC and MBC, broth dilution, S. aureus AD3; format: cell-based; conditions: Staphylococcus aureus; S. aureus AD3 (clinical strain)
How it was run: (§1)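 Compounds, in 2.5% tween-80/2.5% DMSO, serially diluted in MH broth over 32–0.01 µg/mL with 5 × 10^5 CFU/mL inoculum, triplicates, 22–26 h at 37 °C; MIC = lowest concentration with no visible growth. MBC from plating non-turbid wells on MH agar, further 22–26 h at 37 °C.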

S. aureus (ATCC 29213) = experiment: MIC and MBC, broth dilution, S. aureus ATCC 29213; format: cell-based; conditions: Staphylococcus aureus, ATCC29213
How it was run: as §1

CYP3A4, sequence (P08684 whole entry): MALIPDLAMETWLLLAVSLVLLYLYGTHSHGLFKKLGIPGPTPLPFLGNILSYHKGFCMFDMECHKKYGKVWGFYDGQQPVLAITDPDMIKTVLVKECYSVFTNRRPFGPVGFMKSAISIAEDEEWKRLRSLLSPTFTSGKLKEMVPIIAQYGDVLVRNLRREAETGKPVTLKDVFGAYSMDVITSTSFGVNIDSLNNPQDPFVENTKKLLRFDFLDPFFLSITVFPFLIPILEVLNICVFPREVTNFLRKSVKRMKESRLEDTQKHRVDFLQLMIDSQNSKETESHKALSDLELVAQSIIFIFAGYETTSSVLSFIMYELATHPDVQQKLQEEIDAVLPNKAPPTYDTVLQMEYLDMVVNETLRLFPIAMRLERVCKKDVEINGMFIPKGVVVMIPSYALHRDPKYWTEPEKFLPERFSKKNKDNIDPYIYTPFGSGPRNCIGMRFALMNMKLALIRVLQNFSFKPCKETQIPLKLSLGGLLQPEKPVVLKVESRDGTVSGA

- Avg kd (50S ribosome; 1:1 Langmuir binding): 7.39e-06 s⁻¹
- Kd (50S ribosome; KD = Kd/Ka): 0.0177 µM
- IC50 (CYP3A4): 6.19 µM
- IC50 (CYP3A4; converted with MW): 6.19 µM
- melting point: 91 to 93 °C
- MIC (S. aureus (AD3)): 0.12 µg/mL (≈ 0.254 µM)
- MIC (S. aureus (ATCC 29213)): 0.25 µg/mL (≈ 0.53 µM)
Compound: C=C[C@]1(C)C[C@@H](OC(=O)CNc2ccc(F)cc2)[C@]2(C)[C@H](C)CC[C@]3(CCC(=O)[C@H]32)[C@@H](C)[C@@H]1O [Compound 9, 22-(4-Fluoroanilineyl)-22-deoxypleuromutilin]
- Avg ka (50S ribosome; 1:1 Langmuir binding): 417 M⁻¹ s⁻¹
- MBC (S. aureus (AD3)): 0.5 µg/mL (≈ 1.06 µM)
- MBC (S. aureus (ATCC 29213)): 0.5 µg/mL (≈ 1.06 µM)

Source: PMC8838415, “Discovery of Novel Pleuromutilin Derivatives as Potent Antibacterial Agents for the Treatment of MRSA Infection” (Molecules, 2022)
